Laboratory results taken from PubChem BioAssay (NCI).
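Dose response: 5 concentrations. Exposure: 48 h. Format: 96-well plates. Endpoint: linear interpolation; highest concentration if not reached. Here, GI50 denotes the concentration required for 50% inhibition of growth. TGI denotes the concentration required for complete inhibition of growth.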

Columns and labels:
Assay in all cases: NCI anticancer screen, dose series, 48 h
786-0 renal = tested on: 786-0 renal
A498 renal = tested on: A498 renal
A549 NSCLC = tested on: A549 NSCLC
ACHN renal = tested on: ACHN renal
BT-549 breast = tested on: BT-549 breast
CAKI-1 renal = tested on: CAKI-1 renal
CCRF-CEM leukemia = tested on: CCRF-CEM leukemia
COLO 205 colon = tested on: COLO 205 colon
DU-145 prostate = tested on: DU-145 prostate
EKVX NSCLC = tested on: EKVX NSCLC
HCC-2998 colon = tested on: HCC-2998 colon
HCT-116 colon = tested on: HCT-116 colon
HCT-15 colon = tested on: HCT-15 colon
HL-60(TB) leukemia = tested on: HL-60(TB) leukemia
HOP-62 NSCLC = tested on: HOP-62 NSCLC
HOP-92 NSCLC = tested on: HOP-92 NSCLC
HS 578T breast = tested on: HS 578T breast
HT29 colon = tested on: HT29 colon
IGROV1 ovarian = tested on: IGROV1 ovarian
K-562 leukemia = tested on: K-562 leukemia
KM12 colon = tested on: KM12 colon
LOX IMVI melanoma = tested on: LOX IMVI melanoma
M14 melanoma = tested on: M14 melanoma
MALME-3M melanoma = tested on: MALME-3M melanoma
MCF7 breast = tested on: MCF7 breast
MDA-MB-231 breast = tested on: MDA-MB-231 breast
MDA-MB-435 = tested on: MDA-MB-435
MDA-MB-468 breast = tested on: MDA-MB-468 breast
MOLT-4 leukemia = tested on: MOLT-4 leukemia
NCI-H226 lung = tested on: NCI-H226 lung
NCI-H23 lung = tested on: NCI-H23 lung
NCI-H460 lung = tested on: NCI-H460 lung
NCI-H522 lung = tested on: NCI-H522 lung
NCI/ADR-RES ovarian = tested on: NCI/ADR-RES ovarian
OVCAR-3 ovarian = tested on: OVCAR-3 ovarian
OVCAR-4 ovarian = tested on: OVCAR-4 ovarian
OVCAR-5 ovarian = tested on: OVCAR-5 ovarian
OVCAR-8 ovarian = tested on: OVCAR-8 ovarian
PC-3 prostate = tested on: PC-3 prostate
RPMI-8226 leukemia = tested on: RPMI-8226 leukemia
RXF 393 renal = tested on: RXF 393 renal
SF-268 CNS = tested on: SF-268 CNS
SF-295 CNS = tested on: SF-295 CNS
SF-539 CNS = tested on: SF-539 CNS
SK-MEL-2 melanoma = tested on: SK-MEL-2 melanoma
SK-MEL-28 melanoma = tested on: SK-MEL-28 melanoma
SK-MEL-5 melanoma = tested on: SK-MEL-5 melanoma
SK-OV-3 ovarian = tested on: SK-OV-3 ovarian
SN12C renal = tested on: SN12C renal
SNB-19 CNS = tested on: SNB-19 CNS
SNB-75 CNS = tested on: SNB-75 CNS
SR leukemia = tested on: SR leukemia
SW-620 colon = tested on: SW-620 colon
T-47D breast = tested on: T-47D breast
TK-10 renal = tested on: TK-10 renal
U251 CNS = tested on: U251 CNS
UACC-257 melanoma = tested on: UACC-257 melanoma
UACC-62 melanoma = tested on: UACC-62 melanoma
UO-31 renal = tested on: UO-31 renal

`c1ccc(CSc2nnc(-c3ccc4nc(-c5ccccc5)[nH]c4c3)o2)cc1` showed a GI50 (786-0 renal) of 8.83 µM, a TGI (786-0 renal) of 22.9 µM and a GI50 (A498 renal) of 12.4 µM. The TGI (A498 renal) was 25.4 µM, the GI50 (A549 NSCLC) was 12 µM and the TGI (A549 NSCLC) was 28.7 µM. For the same compound, the GI50 (ACHN renal) was 14.3 µM, the TGI (ACHN renal) was 28 µM and the GI50 (BT-549 breast) was 12.8 µM. For the same compound, the TGI (BT-549 breast) was 30.2 µM, the GI50 (CAKI-1 renal) was 10.5 µM and the TGI (CAKI-1 renal) was 22.2 µM. It also gave a GI50 (CCRF-CEM leukemia) of 8.83 µM, a TGI (CCRF-CEM leukemia) of over 100 µM and a GI50 (COLO 205 colon) of 32.6 µM. It also gave a TGI (COLO 205 colon) of over 100 µM, a GI50 (DU-145 prostate) of 16.2 µM and a TGI (DU-145 prostate) of 37 µM. For the same compound, the GI50 (EKVX NSCLC) was 14.5 µM, the TGI (EKVX NSCLC) was over 100 µM and the GI50 (HCC-2998 colon) was 34.8 µM. It also gave a TGI (HCC-2998 colon) of over 100 µM, a GI50 (HCT-116 colon) of 11.9 µM and a TGI (HCT-116 colon) of 25.7 µM. It also gave a GI50 (HCT-15 colon) of 8.29 µM, a TGI (HCT-15 colon) of 28.8 µM and a GI50 (HL-60(TB) leukemia) of 24.2 µM. It also gave a TGI (HL-60(TB) leukemia) of over 100 µM, a GI50 (HOP-62 NSCLC) of 20.2 µM and a TGI (HOP-62 NSCLC) of 44.8 µM. It also gave a GI50 (HOP-92 NSCLC) of 13.3 µM, a TGI (HOP-92 NSCLC) of 39.9 µM and a GI50 (HS 578T breast) of 18.8 µM. It also gave a TGI (HS 578T breast) of 57.2 µM, a GI50 (HT29 colon) of 6.24 µM and a TGI (HT29 colon) of over 100 µM. The GI50 (IGROV1 ovarian) was 20.4 µM, the TGI (IGROV1 ovarian) was 46 µM and the GI50 (K-562 leukemia) was 8.05 µM. It also gave a TGI (K-562 leukemia) of over 100 µM, a GI50 (KM12 colon) of 29.4 µM and a TGI (KM12 colon) of over 100 µM. For the same compound, the GI50 (LOX IMVI melanoma) was 15.8 µM, the TGI (LOX IMVI melanoma) was 34 µM and the GI50 (M14 melanoma) was 14.6 µM. For the same compound, the TGI (M14 melanoma) was 36.5 µM, the GI50 (MALME-3M melanoma) was 12.5 µM and the TGI (MALME-3M melanoma) was 28.3 µM. For the same compound, the GI50 (MCF7 breast) was 11.1 µM, the TGI (MCF7 breast) was 26.4 µM and the GI50 (MDA-MB-231 breast) was 16.8 µM. It also gave a TGI (MDA-MB-231 breast) of 34.7 µM, a GI50 (MDA-MB-435) of 12 µM and a TGI (MDA-MB-435) of 28.3 µM. For the same compound, the GI50 (MDA-MB-468 breast) was 7.57 µM, the TGI (MDA-MB-468 breast) was 27.7 µM and the GI50 (MOLT-4 leukemia) was 5.75 µM. The TGI (MOLT-4 leukemia) was over 100 µM, the GI50 (NCI-H226 lung) was 12.6 µM and the TGI (NCI-H226 lung) was 37.4 µM. For the same compound, the GI50 (NCI-H23 lung) was 22.9 µM, the TGI (NCI-H23 lung) was 73.5 µM and the GI50 (NCI-H460 lung) was 12.3 µM. It also gave a TGI (NCI-H460 lung) of 27.5 µM, a GI50 (NCI-H522 lung) of 12.1 µM and a TGI (NCI-H522 lung) of 39 µM. For the same compound, the GI50 (NCI/ADR-RES ovarian) was 11.1 µM, the TGI (NCI/ADR-RES ovarian) was 37.3 µM and the GI50 (OVCAR-3 ovarian) was 15.9 µM. The TGI (OVCAR-3 ovarian) was 33.6 µM, the GI50 (OVCAR-4 ovarian) was 11.1 µM and the TGI (OVCAR-4 ovarian) was 23.3 µM. It also gave a GI50 (OVCAR-5 ovarian) of 24.1 µM, a TGI (OVCAR-5 ovarian) of 97.7 µM and a GI50 (OVCAR-8 ovarian) of 14.6 µM. For the same compound, the TGI (OVCAR-8 ovarian) was 30.4 µM, the GI50 (PC-3 prostate) was 11.3 µM and the TGI (PC-3 prostate) was 32.3 µM. It also gave a GI50 (RPMI-8226 leukemia) of 7.03 µM, a TGI (RPMI-8226 leukemia) of over 100 µM and a GI50 (RXF 393 renal) of 4.77 µM. For the same compound, the TGI (RXF 393 renal) was 22.6 µM, the GI50 (SF-268 CNS) was 14.1 µM and the TGI (SF-268 CNS) was 38.8 µM. The GI50 (SF-295 CNS) was 10.4 µM, the TGI (SF-295 CNS) was 24 µM and the GI50 (SF-539 CNS) was 11.3 µM. It also gave a TGI (SF-539 CNS) of 23.4 µM, a GI50 (SK-MEL-2 melanoma) of 17 µM and a TGI (SK-MEL-2 melanoma) of 64.1 µM. It also gave a GI50 (SK-MEL-28 melanoma) of 14.7 µM, a TGI (SK-MEL-28 melanoma) of 33 µM and a GI50 (SK-MEL-5 melanoma) of 7.25 µM. For the same compound, the TGI (SK-MEL-5 melanoma) was over 100 µM, the GI50 (SK-OV-3 ovarian) was 18.7 µM and the TGI (SK-OV-3 ovarian) was 48.5 µM. The GI50 (SN12C renal) was 12.1 µM, the TGI (SN12C renal) was 25.7 µM and the GI50 (SNB-19 CNS) was 14.3 µM. For the same compound, the TGI (SNB-19 CNS) was 30 µM, the GI50 (SNB-75 CNS) was 10.8 µM and the TGI (SNB-75 CNS) was 24.8 µM. For the same compound, the GI50 (SR leukemia) was 22.4 µM, the TGI (SR leukemia) was over 100 µM and the GI50 (SW-620 colon) was 17.8 µM. For the same compound, the TGI (SW-620 colon) was 40.3 µM, the GI50 (T-47D breast) was 3.6 µM and the TGI (T-47D breast) was 19.1 µM. The GI50 (TK-10 renal) was 14.8 µM, the TGI (TK-10 renal) was 29.7 µM and the GI50 (U251 CNS) was 13.8 µM. The TGI (U251 CNS) was 29.8 µM, the GI50 (UACC-257 melanoma) was 23.6 µM and the TGI (UACC-257 melanoma) was 85.2 µM. It also gave a GI50 (UACC-62 melanoma) of 13.8 µM, a TGI (UACC-62 melanoma) of 31.4 µM and a GI50 (UO-31 renal) of 11.3 µM. For the same compound, the TGI (UO-31 renal) was 23.7 µM.
